Test results taken from patent publication US20230096028A1, “BICYCLIC HETEROCYCLYL COMPOUNDS AND USES THEREOF” (Revolution Medicines, Inc., priority 2019, published 2023).

Experiments:
[1] = target: T1, SOS1 catalytic domain (residues 564-1049) (Homo sapiens, UniProt Q07889); test: Mode of Action Assay: inhibition of SOS1 nucleotide exchange activity (SOS1 TR-FRET IC50 Assay)
T1 sequence (Q07889 564-1049): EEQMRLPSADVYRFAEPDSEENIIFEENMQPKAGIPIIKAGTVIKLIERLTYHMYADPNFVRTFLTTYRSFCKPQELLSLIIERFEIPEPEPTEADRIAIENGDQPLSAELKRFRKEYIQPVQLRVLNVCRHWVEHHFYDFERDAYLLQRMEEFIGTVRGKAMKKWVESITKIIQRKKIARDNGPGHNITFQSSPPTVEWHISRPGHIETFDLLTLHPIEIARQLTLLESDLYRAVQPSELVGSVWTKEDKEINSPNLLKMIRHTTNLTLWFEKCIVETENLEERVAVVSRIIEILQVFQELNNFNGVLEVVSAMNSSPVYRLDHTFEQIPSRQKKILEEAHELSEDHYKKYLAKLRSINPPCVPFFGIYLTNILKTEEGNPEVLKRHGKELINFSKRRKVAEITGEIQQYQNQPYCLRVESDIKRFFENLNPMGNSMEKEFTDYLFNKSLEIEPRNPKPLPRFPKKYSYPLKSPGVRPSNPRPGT

[2] = target: T1, SOS1 catalytic domain (residues 564-1049); test: Potency Assay: binding affinity to SOS1 using Surface Plasmon Resonance (SPR); design: SOS1 catalytic domain (residues 564-1049) immobilized on a sensor chip; settings: immobilized SOS1 catalytic domain (residues 564-1049), read-out: SOS1 SPR Equilibrium Kd
Outline: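 Kd was obtained by plotting binding response, taken just before association ended, versus compound concentration on a Biacore 8K. Compounds flowed at 50 μL/min over streptavidin-captured avi-SOS1 catalytic domain (~6000 RU), followed by buffer dissociation; HEPES 0.01 M/NaCl 0.15 M/0.05% P20 buffer, double-referenced.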

[3] = system: PC-9 cells (EGFR Ex19Del); test: Potency Assay: pERK (SOS1 pERK IC50 Assay, AlphaLISA SureFire Ultra p-ERK1/2); format: cell-based; settings: Homo sapiens; PC-9 cells (EGFR Ex19Del), 1 hour incubation, AlphaLISA p-ERK1/2; read-out: SOS1 pERK IC50
Outline: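 Cellular pERK1/2 by AlphaLISA SureFire Ultra after 1 h compound exposure (37° C., highest concentration 10 μM, 3-fold steps, duplicates) of EGFR Ex19Del PC-9 cells seeded the day before. A 4-parameter fit of signal versus log concentration gives IC50.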

Row | SMILES | IC50 [1] [nM] | Kd [2] [nM] | IC50 [3] [nM]
1 | C[C@@H](Nc1nc(Cl)nc2c1CN(C(=O)N1CCN(C)CC(F)(F)C1)C2)c1cccc(C(F)F)c1F [Example 419] | < 1000 | < 400 | < 1000
2 | C[C@@H](Nc1nc(Cl)nc2c1CN(C(=O)C1(C)CCN(C3COC3)CC1)C2)c1cccc(C(F)F)c1F [Example 327] | < 1000 | < 400 | < 1000
3 | C[C@@H](Nc1nc(Cl)nc2c1CN(C(=O)N1CCOCC1)C2)c1cccc2c1OCC2(F)F [Example 466, [2-chloro-4-[[(1R)-1-(3,3-difluoro-2H-benzofuran-7-yl)ethyl]amino]-5,7-dihydropyrrolo[3,4-d]pyrimidin-6-yl]-morpholino-methanone] | < 1000 | < 400 | < 1000
4 | C[C@@H](Nc1nc(Cl)nc2c1CC(N1CCOCC1)CC2)c1cccc(C(F)(F)F)c1 (stereo partly drawn) [Example 435] | < 1000 | < 400 | > 1000
5 | C[C@@H](Nc1nc(Cl)nc2c1CN(C(=O)N1C[C@@H]3C[C@H]1CN3C)C2)c1cccc(C(F)F)c1F [Example 412] | < 1000 | < 400 | < 1000
6 | C[C@@H](Nc1nc(Cl)nc2c1CN(C(=O)N1CCNCC1c1cccnc1)C2)c1cccc(C(F)F)c1F (stereo partly drawn) [Example 386] | < 1000 | < 400 | < 1000
7 | C[C@@H](Nc1nc(Cl)nc2c1CN(C(=O)C1(F)CN(C)C1)C2)c1cccc(C(F)F)c1F [Example 408] | < 1000 | < 400 | < 1000
8 | CC(Nc1nc(Cl)nc2c1CN(C(=O)N1CCOCC1)C2)c1cccc2c1OCCC2(F)F (stereo not drawn) [Example 476, 2-chloro-N-[1-(4,4-difluoro-3,4-dihydro-2H-1-benzopyran-8-yl)ethyl]-6-(morpholine-4-carbonyl)-5H,6H,7H-pyrrolo[3,4-d]pyrimidin-4-amine] | < 1000 | < 400 | > 1000
9 | COc1cc(C(=O)N2Cc3nc(Cl)nc(N[C@H](C)c4cc(N)cc(C(F)(F)F)c4)c3C2)ncn1 [Example 62] | > 1000 | < 400 | < 1000
10 | C[C@@H](Nc1nc(Cl)nc2c1CN(C(=O)C1(F)CCNCC1)C2)c1cc(N)cc(C(F)(F)F)c1 [Example 272] | < 1000 | < 400 | < 1000
11 | C[C@@H](Nc1nc(Cl)nc2c1CN(C(=O)c1ccccn1)CC2)c1cc(N)cc(C(F)(F)F)c1 [Example 247] | > 1000 | > 400 | > 1000
12 | C[C@@H](Nc1nc(Cl)nc2c1CN(C(=O)N1CCNc3ncncc31)C2)c1cc(N)cc(C(F)(F)F)c1 [Example 354] | < 1000 | < 400 | < 1000
13 | C[C@@H](Nc1nc(Cl)nc2c1CN(S(=O)(=O)C1COC1)CC2)c1cc(N)cc(C(F)(F)F)c1 [Example 453] | < 1000 | < 400 | < 1000
14 | C[C@@H](Nc1nc(Cl)nc2c1CN(S(=O)(=O)C1CCOCC1)C2)c1cc(N)cc(C(F)(F)F)c1 [Example 51] | < 1000 | < 400 | < 1000
15 | C[C@@H](Nc1nc(Cl)nc2c1CN(C(=O)N1CCN(C3COC3)CC1)C2)c1cccc(C(F)F)c1F [Example 383] | < 1000 | < 400 | < 1000
16 | C[C@@H](Nc1ncnc2c1CC(N1CC3(COC3)C1)CC2)c1cccc(C(F)(F)CO)c1 (stereo partly drawn) [Example 439] | < 1000 | < 400 | < 1000
17 | C[C@@H](Nc1nc(Br)nc2c1CN(C(=O)N1CCOCC1)C2)c1cc(N)cc(C(F)(F)F)c1 [Example 131, N-[(1R)-1-[3-amino-5-(trifluoro-methyl)phenyl]ethyl]-2-bromo-6-(morpholine-4-carbonyl)-5H,6H,7H-pyrrolo[3,4-d]pyrimidin-4-amine] | < 1000 | < 400 | < 1000
18 | C[C@@H](Nc1nc(Cl)nc2c1CN(C(=O)N1CCOCC1)C2)c1cccc(C(C)(F)F)c1 [Example 467, [2-chloro-4-[[(1R)-1-[3-(1,1-difluoroethyl)phenyl]ethyl]amino]-5,7-dihydropyrrolo[3,4-d]pyrimidin-6-yl]-morpholino-methanone] | < 1000 | < 400 | > 1000
19 | COc1nccc(C(=O)N2CCc3nc(Cl)nc(N[C@H](C)c4cc(N)cc(C(F)(F)F)c4)c3C2)n1 [Example 234] | > 1000 | > 400 | > 1000

Row | SMILES | IC50 [1] [nM] | Kd [2] [nM] | IC50 [3] [nM]
20 | C[C@@H](Nc1nc(Cl)nc2c1CN(C(=O)N1CCNC(=O)C1)C2)c1cccc(C(F)F)c1F [Example 403] | < 1000 | < 400 | < 1000
21 | C[C@@H](Nc1nc(Cl)nc2c1CN(C(=O)N1CC3CCC(C1)N3C)C2)c1cccc(C(F)F)c1F [Example 429] | < 1000 | < 400 | < 1000
22 | CC1CNCCN1C(=O)N1Cc2nc(Cl)nc(N[C@H](C)c3cccc(C(F)F)c3F)c2C1 (stereo partly drawn) [Example 391] | < 1000 | < 400 | < 1000
23 | C[C@@H](Nc1nc(Cl)nc2c1CN(C(=O)[C@@H]1COCCN1)C2)c1cccc(C(F)(F)F)c1 [Example 275] | < 1000 | > 400 | > 1000
24 | C[C@@H](Nc1nc(Cl)nc2c1CN(C(=O)c1ccc3c(n1)CCNC3)C2)c1cc(N)cc(C(F)(F)F)c1 [Example 82] | < 1000 | < 400 | < 1000
25 | C[C@@H](Nc1nc(Cl)nc2c1CN(C(=O)N1CCNC(C(F)(F)F)C1)C2)c1cccc(C(F)F)c1F (stereo partly drawn) [Example 387] | < 1000 | < 400 | < 1000
26 | C[C@@H](Nc1nc(Cl)nc2c1CN(C(=O)N1CC3CC1CN3C1COC1)C2)c1cccc(C(F)F)c1F (stereo partly drawn) [Example 421] | < 1000 | < 400 | < 1000
27 | C[C@@H](Nc1nc(Cl)nc2c1CN(C(=O)c1cccnn1)C2)c1cc(N)cc(C(F)(F)F)c1 [Example 71] | < 1000 | < 400 | < 1000
28 | COC1(C(=O)N2Cc3nc(Cl)nc(N[C@H](C)c4cccc(C(F)F)c4F)c3C2)CN(C2COC2)C1 [Example 340] | < 1000 | < 400 | < 1000
29 | C[C@@H](Nc1nc(Cl)nc2c1CN(C(=O)N1CCN(C)CC1)C2)c1cccc(C(F)F)c1F [Example 430] | < 1000 | < 400 | < 1000
30 | C[C@@H](Nc1nc(CNC2CC2)nc2c1CN(C(=O)N1CCOCC1)C2)c1cccc(C(F)F)c1F [Example 508, 2-[(cyclopropylamino)methyl]-N-{1-[3-(difluoromethyl)-2-fluorophenyl]ethyl}-6-(morpholine-4-carbonyl)-5H,6H,7H-pyrrolo[3,4-d]pyrimidin-4-amine] | < 1000 | < 400 | > 1000
31 | COC1(C(=O)N2Cc3nc(C)nc(N[C@H](C)c4cccc(C(F)(F)CO)c4)c3C2)CCOCC1 [Example 239] | < 1000 | < 400 | > 1000
32 | C[C@@H](Nc1nc(Cl)nc2c1CN(C(=O)C1(C)CCOCC1)C2)c1cccc(C(F)(F)CO)c1 [Example 240] | < 1000 | < 400 | < 1000
33 | C[C@@H](Nc1nc(Cl)nc2c1CN(C(=O)[C@H]1CCOC[C@H]1N)C2)c1cccc(C(F)F)c1F [Example 306] | < 1000 | < 400 | < 1000
34 | C[C@@H](Nc1nc(Cl)nc2c1CN(C(=O)C1COCCN(C)C1)C2)c1cccc(C(F)F)c1F (stereo partly drawn) [Example 320] | < 1000 | < 400 | < 1000
35 | C[C@@H](Nc1nc(Cl)nc2c1CN(C(=O)c1ccc(OC(F)F)cn1)C2)c1cc(N)cc(C(F)(F)F)c1 [Example 61] | > 1000 | < 400 | < 1000
36 | C[C@@H](Nc1nc(Cl)nc2c1CN(C(=O)N1CCOCC1)C2)c1cccc(C(F)(F)COC2COC2)c1 [Example 479, 2-chloro-N-[(1R)-1-{3-[1,1-difluoro-2-(oxetan-3-yloxy)ethyl]phenyl}ethyl]-6-(morpholine-4-carbonyl)-5H,6H,7H-pyrrolo[3,4-d]pyrimidin-4-amine] | < 1000 | < 400 | < 1000
37 | COC1(C(=O)N2Cc3nc(Cl)nc(N[C@H](C)c4cccc(C(F)F)c4F)c3C2)CCNCC1 [Example 310] | < 1000 | < 400 | < 1000
38 | C[C@@H](Nc1nc(Cl)nc2c1CN(C(=O)C1(C#N)CNC1)C2)c1cccc(C(F)F)c1F [Example 328] | < 1000 | < 400 | < 1000
